Results reported in US5679671A, “Amino acid derivative” (Eisai Co., Ltd., priority 1993, dated 1997).

Experiments:
[1] = tested on: ANP-treated SHR; assay: Diuretic effect on ANP-treated SHR, i.v. (Experiment C-4); type: in vivo, Spontaneously hypertensive male rats
Experimental: 50 ng/kg/min of rat Atrial natriuretic peptide (r-ANP) was intravenously injected into Spontaneously hypertensive male rats (aged 14 to 16 weeks). When the hematogenic dynamics and the blood r-ANP level became stable 1 hour after the injection, the diuretic effect of each test compound was examined. The diuretic effect was determined by intravenously injecting the test compound and measuring an increase (% rate of change) in urinary accumulation within 20 minutes. As a comparative compound, [4S-[4α,7α(R*),12bβ]]-7-[(1-oxo-2(S)-thio-3-phenylpropyl)amino[-1,2,3,4,6,7,8,12b-octahydro-6-oxopyrido[2,1-a][2]benzazepine-4-carboxylic acid was used.

[2] = target: T1, ACE (Rattus norvegicus, UniProt P47820); assay: ACE inhibition activity using rat lung (Experiment C-2); type: biochemical; settings: Table C-1; rat lung membrane fraction, borate buffer pH 8.3
T1 construct: membrane fraction prepared from rat lung; from tissue; host or cells: rat lung, membrane fraction (method of Wu-Wong et al.)
T1 sequence (P47820 36-1313): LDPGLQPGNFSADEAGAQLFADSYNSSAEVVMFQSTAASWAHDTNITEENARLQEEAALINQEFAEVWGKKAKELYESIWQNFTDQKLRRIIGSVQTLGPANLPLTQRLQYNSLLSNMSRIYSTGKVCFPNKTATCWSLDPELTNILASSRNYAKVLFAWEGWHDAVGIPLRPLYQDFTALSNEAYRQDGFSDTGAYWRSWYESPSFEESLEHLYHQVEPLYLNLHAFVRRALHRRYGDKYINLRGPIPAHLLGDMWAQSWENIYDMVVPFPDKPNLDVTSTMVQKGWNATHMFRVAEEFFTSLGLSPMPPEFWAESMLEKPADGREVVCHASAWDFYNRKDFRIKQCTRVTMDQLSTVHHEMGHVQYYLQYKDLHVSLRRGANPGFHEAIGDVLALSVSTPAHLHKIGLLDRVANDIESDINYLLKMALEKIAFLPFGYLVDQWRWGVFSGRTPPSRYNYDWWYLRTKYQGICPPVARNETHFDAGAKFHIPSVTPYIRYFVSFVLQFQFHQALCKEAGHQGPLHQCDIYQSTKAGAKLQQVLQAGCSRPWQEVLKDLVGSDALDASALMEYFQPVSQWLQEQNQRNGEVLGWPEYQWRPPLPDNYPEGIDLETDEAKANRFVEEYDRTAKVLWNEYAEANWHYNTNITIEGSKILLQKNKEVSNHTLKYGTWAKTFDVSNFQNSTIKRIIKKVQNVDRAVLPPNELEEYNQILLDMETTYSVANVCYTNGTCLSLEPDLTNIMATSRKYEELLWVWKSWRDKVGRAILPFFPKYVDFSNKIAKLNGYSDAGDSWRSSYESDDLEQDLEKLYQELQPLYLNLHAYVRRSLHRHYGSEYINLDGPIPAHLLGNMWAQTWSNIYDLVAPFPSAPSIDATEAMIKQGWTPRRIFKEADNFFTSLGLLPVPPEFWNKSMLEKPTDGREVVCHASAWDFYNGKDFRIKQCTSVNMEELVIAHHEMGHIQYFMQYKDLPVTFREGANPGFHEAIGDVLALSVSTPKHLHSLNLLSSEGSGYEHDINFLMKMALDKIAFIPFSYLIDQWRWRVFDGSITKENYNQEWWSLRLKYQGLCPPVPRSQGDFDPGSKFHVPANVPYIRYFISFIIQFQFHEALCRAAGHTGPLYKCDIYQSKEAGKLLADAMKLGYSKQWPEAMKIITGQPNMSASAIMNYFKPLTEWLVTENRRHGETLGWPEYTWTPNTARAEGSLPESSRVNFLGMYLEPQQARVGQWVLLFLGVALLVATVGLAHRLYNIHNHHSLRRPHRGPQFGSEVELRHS
Experimental: The ACE inhibition activity was determined by using a membrane fraction prepared from rat lung in accordance with the method of Wu-Wong et al. (Characterization of Endthelin Converting Enzyme in Rat Lung., Junshyum R. Wu-Wong, Gerald P. Budzik, Edward M. Devine and Terry J. Opgenorth, Biochem. Biophys. Res. Commun., 1990, 171, 1291-1296.).
The ACE activity was determined with the use of a modification (modified to a borate buffer, pH 8.3) of the method of Cushman and Cheung (Spectrophotometric Assay and Properties of the Angiotensin-Converting Enzyme of Rabbit Lung., Cushman D. W. and Cheung H. S., 1971, 20, 1637-1648.).
(§1) In the presence of ACE, the hippurate liberated from hippuryl-histidyl-leucine (Hippuryl-His-Leu (PeptideInstitute Inc., Japan)) was extracted with ethyl acetate and then the absorbance was measured at a wavelength of 228 nm.
With respect to the ACE inhibition activity, the test compound was added to the reaction system as described above in such a manner as to give the final concentrations of 1, 3, 10, 30, 100, 300 and 1000 nM, an inhibition curve was prepared, and then the concentration at which 50% inhibition was achieved was taken as IC50. As a comparative compound, [4S-[4α,7α(R*),12bβ]]-7-[(1-oxo-2-(S)-thio-3-phenyl-propyl)amino]-1,2,3,4,6,7,8,12b-octahydro-6-oxopyrido-[2,1-a][2]benzazepine-4-carboxylic acid was used.

[3] = target: T1, ACE; assay: ACE inhibition activity (Experiment E-1); type: biochemical; settings: rat lung membrane fraction, pH 8.3
Experimental: As a source of the enzyme ACE, a membrane fraction prepared from rat lung in accordance with the method of Wu-Wong et al. (Characterization of Endthelin Converting Enzyme in Rat Lung., Jinshyum R. Wu-Wong, Gerald, P. Budzik, Edward M. Devine and Terry J. Opgenorth, Biochem. Biophys. Res. Commun., 1990, 171, 1291-1296.) was used. The ACE activity was determined with the use of a modification (modified to a borate buffer pH 8.3) of the method of Cushman and Cheung (Spectrophotometric Assay and Properties of the Angiotensin-Converting Enzyme of Rabbit Lung., Cushman D. W. and Cheung H. S., 1971, 20, 1637-1648.). Now the procedure will be briefly described.
as §1
To determine the NEP inhibition activity and the ACE inhibition activity, the inhibitor was added to the assay systems of both enzyme activities as described above in such a manner as to give the final concentrations of 1, 3, 10, 30, 100, […] and 1000 nM and inhibition curves were prepared. Then the concentration at which 50% inhibition was achieved was taken as IC50.

Row | Structure (SMILES) | increase (% rate of change) in urinary accumulation within 20 minutes ([1]; 0.03 mg/kg i.v.) [%] | increase (% rate of change) in urinary accumulation within 20 minutes ([1]; 0.1 mg/kg i.v.) [%] | increase (% rate of change) in urinary accumulation within 20 minutes ([1]; 0.3 mg/kg i.v.) [%] | IC50 [2] [nM] | IC50 [3] [nM] | increase (% rate of change) in urinary accumulation within 20 minutes ([1]; 0.01 mg/kg i.v.) [%]
1 | O=C(N[C@H]1Cc2ccccc2[C@H]2CCC[C@@H](C(=O)O)N2C1=O)[C@@H](S)Cc1ccccc1 [Comp. cpd. E-1, [4S-[4α,7α(R*),12bβ]]-7-[(1-oxo-2-(S)-thio-3-phenyl-propyl)amino]-1,2,3,4,6,7,8,12b-octahydro-6-oxopyrido-[2,1-a][2]benzazepine-4-carboxylic acid, reference compound] | 220 | 370 | 360 | 9 | 9 | 
2 | CC[C@H](C)[C@H](S)C(=O)NC1CCc2ccccc2N(CC(=O)O)C1=O (stereo partly drawn) [Example A-9, 1-Carboxymethyl-3-[(2S,3S)-2-mercapto-3-methylvarelylamino]-1H-[1]benzazepin-2-one] |  |  |  | 13 |  | 
3 | CC[C@H](C)[C@H](S)C(=O)N[C@H]1CCc2ccccc2N(CC(=O)O)C1=O [Example A-11, (S)-3-[(2S,3S)-2-Mercapto-3-methylvarelylamino]-1-carboxymethyl-2,3,4,5-tetrahydro-1H-[1]benzazepin-2-one] | 390 | 460 |  | 11 |  | 220
4 | CC[C@H](C)[C@H](S)C(=O)N[C@H]1CCC[C@H]2SC[C@@H](C(=O)O)N2C1=O [Example C-8, [3R-[3α,6α,(S*),9aβ]]-6-[[(2S,3S)-3-methyl-1-oxo-2-thiopentyl]amino]-octahydro-5-oxothiazol[3,2-a]-azepine-3-carboxylic acid] | 280 | 340 |  | 5.3 |  | 200
5 | CC[C@H](C)[C@H](S)C(=O)N[C@H]1Cc2ccc(-c3ccccc3)cc2[C@H]2CCC[C@@H](C(=O)O)N2C1=O [Example C-14, [4S-[4α,7α(R*),12bβ]]-7-[[(2S,3S)-3-Methyl-1-oxo-2-thiopentyl]amino]-6-oxo-11-phenyl-1,2,3,4,6,7,8,12b-octahydropyrido[2,1-a][2]benzazepine-4-carboxylic acid] | 240 | 420 | 470 | 12.3 | 11 | 
6 | CC(C)[C@H](S)C(=O)N[C@H]1Cc2ccc(-c3ccccc3)cc2[C@H]2CCC[C@@H](C(=O)O)N2C1=O [Example E-10, [4S-[4α,7α(R*),12bβ]]-7-[(S)-2-Mercapto-3-methylbutyrylamino]-6-oxo-11-phenyl-1,2,3,4,6,7,8,12b-octahydropyrido[2,1-a][2]benzazepine-4-carboxylic acid] |  |  |  |  | 10 | 
